This data set is described as follows: Effect of activated charcoal (AC) on the pharmacokinetics of 2-QBA. Particulars: mice; for AUC(0-t): read-out: AUC24h. The class given is in vivo. The method, then: To elucidate the reabsorption mechanism of 2-QBA, a pharmacokinetic study of 2-QBA was conducted with activated charcoal (AC) administered PO. Male ICR mice (7 weeks old, 25–30 g) were fasted for 14–16 h prior to the administration of 2-QBA.
In total, […] were administered 2-QBA (1 mg/kg/3 mL) via the tail vein. Two hours after the 2-QBA dosing, AC (0.8 g/kg/5 mL in distilled water) or a vehicle (5 mL/kg distilled water) was administrated via oral gavage. Each group included ten mice who were randomly divided into two groups for sparse sampling. Blood collection was performed at 0.083, 0.5, 2, and 8 h from 5 mice and at 0.25, 1, 4, and 24 h from another 5 mice, as described previously. Four mice treated with either AC (0.8 g/kg) or the vehicle 2 h after the 2-QBA IV dosing (1 mg/kg) were returned to a metabolic cage to collect the urine and feces samples. The urine and feces samples were collected for 72 h.
Next, 2-QBA was administered PO (2 mg/kg/5 mL) with or without AC (0.8 g/kg in 3 mL of DW), which was administered via oral gavage 2 h after the 2-QBA dosing. Each group included eight mice who were randomly divided into two groups for sparse sampling. Blood collection was performed at 0.25, 0.75, 2, and 8 h from 4 mice and at 0.5, 1, 4, and 24 h from another 4 mice, as described previously. Four mice treated with either AC (0.8 g/kg) or vehicle 2 h after the 2-QBA PO dosing (2 mg/kg) were returned to a metabolic cage to collect the urine and feces samples. The urine and feces samples were collected for 72 h.
Aliquots of plasma samples (30 μL) were added to 120 μL of IS solution. The mixture was vigorously vortexed for 5 min and then centrifuged at 13,000× g for 5 min. The supernatant was transferred to autosampler vials. Subsequently, a 3 μL aliquot was injected into the LC-MS/MS system. Aliquots (30 μL) of urine and 10% feces homogenate samples were added to 60 μL of 150 mM sodium acetate buffer (pH 5.0) in the presence or absence of β-glucuronidase (900 unit) at 37 °C for 2 h. The reaction was quenched by adding four volumes of ice-cold IS solution. The mixture was vigorously vortexed for 5 min, followed by centrifugation at 13,000× g for 5 min. The supernatant was transferred to autosampler vials and subsequently a 3 μL aliquot was injected into the LC-MS/MS system.
WinNonlin 5.1 software (Pharsight Co., Mountain View, CA, USA) was used to calculate the pharmacokinetic parameters. AUClast and AUCinf indicate the areas under the plasma concentration curve from 0 h to the last sample and from 0 h to infinity, respectively; these were estimated using the linear trapezoidal method. T1/2 is the elimination half-life, which is estimated from the elimination coefficient (k) (i.e., 0.693/k), and MRT is the mean residence time. CL is the total clearance, which is calculated by dividing the dose by AUCinf. Vdss is the volume of the distribution at a steady state, calculated from MRTxCL. CLrenal and CLfeces are calculated by dividing the amount excreted in urine and feces by the AUCinf, respectively. CLmetabolism is calculated by subtracting CLrenal and CLfeces from CL. Cmax and Tmax are the maximum plasma concentration and time to reach Cmax, respectively. BA is calculated by dividing the dose-normalized AUCinf for PO administration (AUCinf/PO dose) by the dose-normalized AUCinf for IV administration (AUCinf/IV dose). All data are expressed as the mean ± standard deviation (SD).

Setting [1] is: male, ICR, mouse, plasma, iv, 1 mg/kg, IV 1 mg/kg, AC (0.8 g/kg).
Where [2] appears, read: male, ICR, mouse, plasma, iv, 1 mg/kg, IV 1 mg/kg, Control.
Where [3] appears, read: male, ICR, mouse, plasma, po, 2 mg/kg, PO 2 mg/kg, AC (0.8 g/kg).
The mark [4] stands for this setting: male, ICR, mouse, plasma, po, 2 mg/kg, PO 2 mg/kg, Control.

Molecules are shown by their SMILES. Read-outs that look alike come from different tables or passages of the source.

One may read the half-life as how long it takes for the measured level to halve. On to `O=C(O)c1ccccc1NC(=O)c1cccc2cccnc12` [2-QBA, 2-(quinoline-8-carboxamido)benzoic acid], for which the AUC(0-t) stood at 1180 ± 264 ng·h/mL (male, ICR, mouse, plasma, intravenous, 1 mg/kg, IV 1 mg/kg, AC (0.8 g/kg) PO 2 h after dosing); 1270 ± 361 ng·h/mL (male, ICR, mouse, plasma, iv, 1 mg/kg, IV 1 mg/kg, Control (vehicle 2 h after dosing)); 650 ± 305 ng·h/mL under setting [3]; 1930 ± 453 ng·h/mL under setting [4]. Besides, the AUC(0-inf) reads like this: under setting [1], 1210 ± 293 ng·h/mL; under setting [2], 1330 ± 422 ng·h/mL; under setting [3], 836 ± 209 ng·h/mL; under setting [4], 2110 ± 608 ng·h/mL. In addition, the MRT reads like this: under setting [1], 2.48 ± 2.56 h; under setting [2], 2.88 ± 1.14 h; under setting [3], 7 ± 2.48 h; under setting [4], 8.49 ± 3.08 h. Moreover, the clearance is 14.5 ± 3.95 mL/min/kg under setting [1] and 13.9 ± 5.41 mL/min/kg under setting [2]. For the same compound, the half-life is 3.18 ± 2.52 h under setting [1], 3.88 ± 1.72 h under setting [2], 5.5 ± 2.24 h under setting [3] and 6.05 ± 2.04 h under setting [4]. Besides, the Cmax by setting is: (male, ICR, mouse, plasma, po, 2 mg/kg, PO 2 mg/kg, AC (0.8 g/kg) 2 h after dosing) 315 ± 106 ng/mL; under setting [4], 399 ± 90.7 ng/mL. For the same compound, the Tmax (male, ICR, mouse, plasma, PO 2 mg/kg, Control) is 0.25 h. In addition, the BA reads like this: (PO 2 mg/kg, AC (0.8 g/kg)) 34.5%; (PO 2 mg/kg, Control) 79.8%.

Values taken from article PMC11279551, “Pharmacokinetics and Enterohepatic Circulation of 2-(Quinoline-8-carboxamido)benzoic Acid (2-QBA) in Mice” (Pharmaceutics, 2024).
